The numbers were not newly measured in patent US7317012B2, “Bicyclic heterocycles as cannabinoind-1 receptor modulators” (Bristol-Myers Squibb Company, priority 2005, dated 2008), which cites them from elsewhere.

Like-named read-outs stand apart in the source and are kept apart here.

For data set [1] the following is noted: chronic administration for two weeks.
For data set [2] the following is noted: human subjects, 16 week trial period.

`Cc1c(C(=O)NN2CCCCC2)nn(-c2ccc(Cl)cc2Cl)c1-c1ccc(I)cc1` [AM-251]: the body weight entry in data set [1] is reported as “substantial body weight reduction”. For the compound `Cc1c(C(=O)NN2CCCCC2)nn(-c2ccc(Cl)cc2Cl)c1-c1ccc(Cl)cc1` [SR-141716], in data set [2], the body weight result is listed as “dose-dependently reduced body weight”.
